Experimental data taken from patent US20040120954A1, “Regulation of mt1-mmp activity” (priority 2000, published 2004).
Each block holds one substance with its values, some of them ahead of it.

Tests used:
[1] = system: MT1-MMP; experiment: Activation of proMMP-2 by MT1-MMP on the cell surface of transfected cells (gelatin zymography); format: cell-based, human; settings: transfected COS1 cells, exogenous purified proMMP-2 (FIGS. 2, 20)
Procedure: (§1) Gelatin zymography was conducted using an SDS-polyacrylamide gel (PAGE) containing gelatin (0.8 mg/ml) (Itoh, Y. et al., J. Biol. Chem., 273: 24360-24367, 1998). The samples were mixed with a SDS-PAGE loading buffer without a reducing agent and subjected to electrophoretic analysis at room temperature. Enzyme activity was visualized as a negative staining area with Coomassie Brilliant Blue R-250.
(§2) The expression construct for FLAG epitope ([…]-tagged MT1-MMP (MT1-F) described in Itoh, Y. et al., J. Biol. Chem., 274: 34260-34266, 1999 was used as a template to generate cDNA for MT1Cat-F (A Ile^318-Gly^535) by the PCR extension method of Ho et al., (Ho, S. N. et al., Gene, 77: 51-59, 1989). The cDNA was subcloned into pSG5 (Stratagene, CA, USA). The PCR-generated fragments were confirmed by DNA sequencing. COS1 cells were transfected with the expression vector for MT1-MMP mutant; MT1-F or MT1Cat-F, or a vector alone (Mock). Expression vectors for each protein were transfected using FuGENE6™ (Roche Molecular Biochemicals) according to the manufacturer's instructions. COS1 cells were seeded in 6-well plates at 1.5×10^5/well at 16 hrs before the transfection was performed. The COS1 cells were maintained in a HAM F-12 medium or DMEM containing 10% fetal bovine serum in a humidified incubator at 37° C. At 48 hrs after the transfection, the cells were collected for use in the experiments. The cells were incubated in the presence of purified proMMP-2 in a serum-free medium (0.25 μg/ml) at 37° C. for 18 hrs. Cell lysates were tested for the expression of the mutants, while culture supernatants were tested for the activation of proMMP-2.
(§3) To investigate roles of dimer formation upon the activation of proMMP-2, MT1-F was introduced into COS1 cells together with MT1PEX-F. The co-introduced cells were reacted with exogenously added proMMP-2. Thus, COS1 cells were co-transfected with the MT1-F and MT1PEX-F at indicated DNA amount ratios. Next, purified proMMP-2 (0.25 μg/ml) in a serum-free medium was reacted with the resulting cells at 37° C. for 18 hrs. MMP-2 in the culture supernatant was analyzed by gelatin zymography, and the cell lysates were subjected to Western blotting analysis using a monoclonal anti-FLAG M2 antibody.
(§4) Next, to determine if MT1PEX-F affects the catalytic activity of MT1-MMP on the cell surface or not, tests for gelatin degrading activity and binding capacity to TIMP-2 were conducted using cells transfected in the same incubator. As shown in FIGS. 12 through 14, CHO-K1 cells were transfected with an expression vector for MT1-F, MT1-F/MT1PEX-F or MT1Cat-F, or a vector alone (Mock). The cells were then treated with trypsin, and separately seeded to: DQ™ gelatin-coated cover slips for testing the proteolytic activity (FIG. 13); and 24-well plates for TIMP-2 binding assay (FIG. 12) and for the activation of proMMP-2 (FIG. 14). Transfected cells on the DQ™ gelatin-coated cover slip as shown in FIG. 13 were incubated in a medium at 37° C. for 18 hrs, and the generated fluorescence was analyzed using confocal microscopy. Transfected cells on the 24-well plate as shown in FIG. 12 were incubated with 25 nM ^125I-labeled TIMP-2 in the presence or absence of BB-94 (50 μM) at 0° C. for 1 hr. MT1-MMP specific binding was calculated by subtracting the datum obtained in the presence of BB-94 (50 μM) from each datum derived from the corresponding experiments. […] DQ™ gelatin is a fluorescence-quenched gelatin, which fluoresces upon proteolytic cleavage. […]

[2] = system: MT1-MMP; experiment: In situ gelatin degrading assay (DQ gelatin or Alexa488-conjugated gelatin); format: cell-based, human; settings: DQ gelatin; CHO-K1 (FIG. 13) or COS1 cells (FIG. 22)
Procedure: (§5) Two different in situ gelatin degrading assays were performed. One used DQ™ gelatin (Molecular Probes, Inc., OR, USA). DQ gelatin is a fluorescence-quenched gelatin substrate, and will fluoresce upon proteolytic cleavage. Glass cover slips were coated with 5% DQ™ gelatin in a 10 mg/ml unlabeled gelatin solution, and dried. Transfected cells were cultured on the cover slip in a humidified chamber for 16 hrs. The cells were then fixed with 3% para-formaldehyde and the degraded areas were visualized as those showing fluorescence.
(§6) The other assay used Alexa488-conjugated gelatin made with an Alexa488-labeling kit (Molecular Probes). The bottom surfaces of 4-well chamber slides (Nunc) were coated with Alexa488-conjugated gelatin according to the method of Yana, I. and Weiss, S. J., Mol. Biol. Cell, 11, 2387-2401, 2000. Transfected COS1 cells were cultured in the chamber slides for 16 hrs in a humidified culture incubator. The cells were then fixed with 3% para-formaldehyde in PBS, and the degraded area was analyzed under a fluorescence microscope. The degraded area was visualized as a dark, non-fluorescent area. Fluorescence images were analyzed using confocal microscopy (BioRad).
as §4, with “experiments. Identically transfected cells on the 24-well plate as shown in FIG. 14 were subjected to the reaction with purified proMMP-2 in a serum-free medium at 37° C. for 18 hrs. The cells and culture supernatants were respectively subjected to Western blotting analysis using a monoclonal anti-FLAG M2 antibody, and gelatin zymography analysis.” for “experiments.”

[3] = target: T1, MT1-MMP (Homo sapiens, UniProt P50281); experiment: Activation of proMMP-2 by MT1-MMP on the cell surface of transfected cells (gelatin zymography); format: cell-based
T1 construct: expressed in transfected cells
Procedure: as §1, §2, §3, §4

[4] = target: T1, MT1-MMP; experiment: In situ gelatin degrading assay (DQ gelatin or Alexa488-conjugated gelatin); format: cell-based; settings: COS1 cells co-transfected with MT1-MMP, Alexa488-labeled gelatin (FIG. 30)
Procedure: as §5, §6
as §4, with “experiments. Identically transfected cells on the 24-well plate as shown in FIG. 14 were subjected to the reaction with purified proMMP-2 in a serum-free medium at 37° C. for 18 hrs. The cells and culture supernatants were respectively subjected to Western blotting analysis using a monoclonal anti-FLAG M2 antibody, and gelatin zymography analysis.” for “experiments.”

[5] = system: HT1080 cells; experiment: Activation of endogenous proMMP-2 in HT1080 cells (zymography, Western blotting); format: cell-based, human
Procedure: FIG. 31: In regard to the efficacy of MT1PEX-F on the matrigel invasive action of HT1080 cells, HT1080 cells were transfected with the stable expression plasmids for MT1PEX-F and the empty vector (Mock). Hygromycin resistant cells were collected and re-seeded. The culture medium was changed to a serum-free medium in the presence or absence of BB94, and the cells were further cultured. The culture media and the cell lysates were analyzed by gelatin zymography and Western blotting using an anti-MT1PEX antibody, respectively.
HT1080 cells are known to express MT1-MMP and MMP-2 endogenously. Thus, the efficacy of MT1PEX-F expression on the activation of endogenous proMMF-2 in HT1080 cells was next examined. The cells were transfected with a plasmid for MT1PEX-F or an empty vector bearing the hygromycin-resistant gene. The culture medium from the hygromycin-resistant cells was analyzed for produced MMP-2 by zymography. […] Co-expression of endogenous MT1-MMP and MT1PEX-F clearly indicated the co-localization of both molecules at the edge of the cells (FIG. 32).

Substance: MT1Cat-F: PEX-deleted FLAG-tagged MT1-MMP (Δ Ile318-Gly535)
activation of proMMP-2 by cells expressing the mutant [1]: did not activate at all | gelatin degrading (proteolytic) activity of cells expressing the mutant [2]: exhibited the gelatin degrading activity

effect on the proteolytic activity of MT1-MMP on the cell surface [4]: did not affect the proteolytic activity
Substance: MT1PEX-F: Catalytic domain-deleted FLAG-tagged MT1-MMP (Δ Tyr112-Pro312), expressed by transfection
effect on the activation of proMMP-2 ([3]; CHO-K1 cells co-transfected with MT1-F and MT1PEX-F (FIG. 14)): completely inhibited the activation of proMMP-2 | effect on the activation of proMMP-2 by MT1-F ([3]; COS1 cells co-transfected at indicated DNA ratios, proMMP-2 0.25 μg/ml, 37° C., 18 hrs (FIGS. 11 and 28)): inhibited the activation of proMMP-2 by MT1-F, in dependence upon the expression level | effect on expression and processing of endogenous MT1-MMP ([5]; HT1080 cell lysates, Western blotting (FIG. 31)): did not affect the expression and processing of endogenous MT1-MMP | activation of endogenous proMMP-2 ([5]; hygromycin-resistant HT1080 cells, serum-free medium (FIG. 31)): did not effectively activate proMMP-2
